Measurements from US6673749B1, “Use of phyllocladane diterpenoids for plant growth promotion and alleviation of growth retardant allelochemicals, and method therefor” (Council of Scientific and Industrial Research, priority 2002, dated 2004).

How the values were obtained:
Type in all cases: in vivo
Hordeum vulgare = assay: Seed germination and seedling shoot/root growth test in petridishes; details: control = 100%
Procedure: (§1) As noted above the activity of phyllocladane diterpenoids used in the practice of this invention was observed when these compounds were tested for their effects on seed germination, root and shoot growth of certain plant species and their antagonistic effect on plant growth retardants by the method described by Bagchi G. D. et al Phytochemistry, 45(6)1131-1133, 1997.
(§2) Plant growth promoting activity of calliterpenone, calliterpenone monoacetate, and calliterpenone di-acetate was examined at 0.1, 0.01 and 0.001 μM concentrations. The tests were conducted against seeds of two monocotyledonous (Hordeum vulgare and Triticum aestivum) and two dicotyledonous plants (Vigna radiata and Trigonella foenum-graecum). Control seeds were germinated in distilled water and all the observations were compared with […]. The root and shoot growth of all the plant species were affected by the phyllocladane diterpenoids, although the extent of effect varied considerably in the plant species with the chemicals and their concentrations. […] Details of the procedure adopted and results obtained are discussed in the various examples.
(§3) 100 ml stalk solutions of 0.1 μM concentration were prepared by dissolving required amounts of various test compounds (depending upon their molecular weights) in minimum amount of ethanol or acetone and adding distilled water. From this stalk solution, 0.01 μM and 0.001 μM concentrations were prepared. Calliterpenone and calliterpenone di acetate was dissolved in 2.0 ml absolute ethanol (Merc), while; calliterpenone monoacetate, isopropylideno calliterpenone and trihydroxy calliterpenone were dissolved in 2.0 ml spectral grade acetone (Ranbaxy). The respective control test solutions of distilled water of each concentration also contained equal amount of absolute ethanol or acetone. For an assay, 10 seeds were placed on Whatman filter paper (moistened with 5.0 ml of test solution in a 9.0 cm diameter petridish (in triplicate). The pteridishes were incubated for 9 days in a germinator, maintained at 25.0±1.0° C. with 90% humidity and 4 hr light/day. At the end of incubation, observations were recorded on the seedlings in terms of germination, shoot and root growth. The data on the length of shoot and root of seedlings and number of seeds germinated in different concentrations of compounds were compared with the control, which was taken as 100%. The data thus obtained were presented in Table-1.
(§4) Root growth of seedlings was measured in the similar way as shoot growth from the experiment as described in Example 1.
(§5) Effect of test compounds on germination was observed from the same experiment as described in Example 1.

[1] = test system: Trigonella foenum-graecum; assay: as above; details: for Percent (%) germination of seeds in relation to control on 9th day after sowing / Percent (%) root growth of seedlings in relation to control on 9th day after sowing / Percent (%) shoot growth of seedlings in relation to control on 9th day after sowing: Trigonella foenum graecum, control = 100%
Procedure: as §1, §2, §3, §4, §5

Triticum aestivum = assay: as above; details: control = 100%
Procedure: as §1, §2, §3, §4, §5

Vigna radiata = assay: as above; details: for Percent (%) germination of seeds in relation to control on 9th day after sowing / Percent (%) root growth of seedlings in relation to control on 9th day after sowing / Percent (%) shoot growth of seedlings in relation to control on 9th day after sowing: Vigna radiata, control = 100%
Procedure: as §1, §2, §3, §4, §5

Hibiscus sabdariffa = assay: Seed germination and seedling growth, comparison with GA3 (Example 4)
Procedure: as §3
(§6) Effect of calliterpenone and its derivatives on seed germination and seedling growth in Hibiscus sabdariffa and Sesbania cannabina were measured in the similar way as these were measured in Example-1.

Sesbania cannabina = assay: as above
Procedure: as §3, §6

C=C1C[C@]23C[C@@]1(O)CC[C@H]2[C@@]12C=C[C@H](O)[C@@](C)(C(=O)O1)[C@H]2[C@@H]3C(=O)O [GA3, Gibberellic acid, reference compound]
Percent (%) germination of seeds in relation to control on 9th day after sowing (Hordeum vulgare; 0.001 μM): 100%
Percent (%) root growth of seedlings in relation to control on 9th day after sowing (Hordeum vulgare; 0.001 μM): 132%
Percent (%) shoot growth of seedlings in relation to control on 9th day after sowing (Hordeum vulgare; 0.001 μM): 104%
Percent (%) germination of seeds in relation to control on 9th day after sowing (Hordeum vulgare; 0.01 μM): 100%
Percent (%) root growth of seedlings in relation to control on 9th day after sowing (Hordeum vulgare; 0.01 μM): 115%
Percent (%) shoot growth of seedlings in relation to control on 9th day after sowing (Hordeum vulgare; 0.01 μM): 91%
Percent (%) germination of seeds in relation to control on 9th day after sowing (Hordeum vulgare; 0.1 μM): 100%
Percent (%) root growth of seedlings in relation to control on 9th day after sowing (Hordeum vulgare; 0.1 μM): 70%
Percent (%) shoot growth of seedlings in relation to control on 9th day after sowing (Hordeum vulgare; 0.1 μM): 55%
Percent (%) germination of seeds in relation to control on 9th day after sowing ([1]; 0.001 μM): 100%
Percent (%) root growth of seedlings in relation to control on 9th day after sowing ([1]; 0.001 μM): 123%
Percent (%) shoot growth of seedlings in relation to control on 9th day after sowing ([1]; 0.001 μM): 116%
Percent (%) germination of seeds in relation to control on 9th day after sowing ([1]; 0.01 μM): 100%
Percent (%) root growth of seedlings in relation to control on 9th day after sowing ([1]; 0.01 μM): 45%
Percent (%) shoot growth of seedlings in relation to control on 9th day after sowing ([1]; 0.01 μM): 112%
Percent (%) germination of seeds in relation to control on 9th day after sowing ([1]; 0.1 μM): 100%
Percent (%) root growth of seedlings in relation to control on 9th day after sowing ([1]; 0.1 μM): 45%
Percent (%) shoot growth of seedlings in relation to control on 9th day after sowing ([1]; 0.1 μM): 93%
Seed germination as compared to 100% in control ([1]; Trigonella foenum-graceum, concentration not specified): 100%
Percent (%) germination of seeds in relation to control on 9th day after sowing (Triticum aestivum; 0.001 μM): 100%
Percent (%) root growth of seedlings in relation to control on 9th day after sowing (Triticum aestivum; 0.001 μM): 131%
Percent (%) shoot growth of seedlings in relation to control on 9th day after sowing (Triticum aestivum; 0.001 μM): 120%
Percent (%) germination of seeds in relation to control on 9th day after sowing (Triticum aestivum; 0.01 μM): 100%
Percent (%) root growth of seedlings in relation to control on 9th day after sowing (Triticum aestivum; 0.01 μM): 116%
Percent (%) shoot growth of seedlings in relation to control on 9th day after sowing (Triticum aestivum; 0.01 μM): 115%
Percent (%) germination of seeds in relation to control on 9th day after sowing (Triticum aestivum; 0.1 μM): 100%
Percent (%) root growth of seedlings in relation to control on 9th day after sowing (Triticum aestivum; 0.1 μM): 62%
Percent (%) shoot growth of seedlings in relation to control on 9th day after sowing (Triticum aestivum; 0.1 μM): 113%
Seed germination as compared to 100% in control (Vigna radiata; V.radiata, concentration not specified): 200%
Percent (%) germination of seeds in relation to control on 9th day after sowing (Vigna radiata; 0.001 μM): 200%
Percent (%) root growth of seedlings in relation to control on 9th day after sowing (Vigna radiata; 0.001 μM): 102%
Percent (%) shoot growth of seedlings in relation to control on 9th day after sowing (Vigna radiata; 0.001 μM): 126%
Percent (%) germination of seeds in relation to control on 9th day after sowing (Vigna radiata; 0.01 μM): 200%
Percent (%) root growth of seedlings in relation to control on 9th day after sowing (Vigna radiata; 0.01 μM): 103%
Percent (%) shoot growth of seedlings in relation to control on 9th day after sowing (Vigna radiata; 0.01 μM): 196%
Percent (%) germination of seeds in relation to control on 9th day after sowing (Vigna radiata; 0.1 μM): 200%
Percent (%) root growth of seedlings in relation to control on 9th day after sowing (Vigna radiata; 0.1 μM): 104%
Percent (%) shoot growth of seedlings in relation to control on 9th day after sowing (Vigna radiata; 0.1 μM): 183%
Seed Ger. (Hibiscus sabdariffa; 0.001 μM): 3
Root Growth (mm) 3rd Day (Hibiscus sabdariffa; 0.001 μM): 21.5 mm
Shoot growth 3rd Day (Hibiscus sabdariffa; 0.001 μM): 47.6
Root Growth (mm) 6th Day (Hibiscus sabdariffa; 0.001 μM): 22.8 mm
Shoot growth 6th Day (Hibiscus sabdariffa; 0.001 μM): 76.3
Root Growth (mm) 9th Day (Hibiscus sabdariffa; 0.001 μM): 25.0 mm
Shoot growth 9th Day (Hibiscus sabdariffa; 0.001 μM): 85.8
Seed Ger. (Hibiscus sabdariffa; 0.01 μM): 3
Root Growth (mm) 3rd Day (Hibiscus sabdariffa; 0.01 μM): 15.8 mm
Shoot growth 3rd Day (Hibiscus sabdariffa; 0.01 μM): 39.6
Root Growth (mm) 6th Day (Hibiscus sabdariffa; 0.01 μM): 16.6 mm
Shoot growth 6th Day (Hibiscus sabdariffa; 0.01 μM): 76.5
Root Growth (mm) 9th Day (Hibiscus sabdariffa; 0.01 μM): 16.6 mm
Shoot growth 9th Day (Hibiscus sabdariffa; 0.01 μM): 76.5
Seed Ger. (Hibiscus sabdariffa; 0.1 μM): 2
Root Growth (mm) 3rd Day (Hibiscus sabdariffa; 0.1 μM): 15.3 mm
Shoot growth 3rd Day (Hibiscus sabdariffa; 0.1 μM): 46.8
Root Growth (mm) 6th Day (Hibiscus sabdariffa; 0.1 μM): 29.3 mm
Shoot growth 6th Day (Hibiscus sabdariffa; 0.1 μM): 76.6
Root Growth (mm) 9th Day (Hibiscus sabdariffa; 0.1 μM): 32.0 mm
Shoot growth 9th Day (Hibiscus sabdariffa; 0.1 μM): 81.6
Seed Ger. (Sesbania cannabina; 0.001 μM): 1
Root Growth (mm) 3rd Day (Sesbania cannabina; 0.001 μM): 35.5 mm
Shoot growth 3rd Day (Sesbania cannabina; 0.001 μM): 31.0
Root Growth (mm) 6th Day (Sesbania cannabina; 0.001 μM): 34.0 mm
Shoot growth 6th Day (Sesbania cannabina; 0.001 μM): 85.6
Root Growth (mm) 9th Day (Sesbania cannabina; 0.001 μM): 40.0 mm
Shoot growth 9th Day (Sesbania cannabina; 0.001 μM): 103.6
Seed Ger. (Sesbania cannabina; 0.01 μM): 2
Root Growth (mm) 3rd Day (Sesbania cannabina; 0.01 μM): 23.5 mm
Shoot growth 3rd Day (Sesbania cannabina; 0.01 μM): 27.0
Root Growth (mm) 6th Day (Sesbania cannabina; 0.01 μM): 25.5 mm
Shoot growth 6th Day (Sesbania cannabina; 0.01 μM): 66.8
Root Growth (mm) 9th Day (Sesbania cannabina; 0.01 μM): 27.8 mm
Shoot growth 9th Day (Sesbania cannabina; 0.01 μM): 67.0
Seed Ger. (Sesbania cannabina; 0.1 μM): 1
Root Growth (mm) 3rd Day (Sesbania cannabina; 0.1 μM): 16.5 mm
Shoot growth 3rd Day (Sesbania cannabina; 0.1 μM): 32.5
Root Growth (mm) 6th Day (Sesbania cannabina; 0.1 μM): 16.6 mm
Shoot growth 6th Day (Sesbania cannabina; 0.1 μM): 42.3
Root Growth (mm) 9th Day (Sesbania cannabina; 0.1 μM): 26.6 mm
Shoot growth 9th Day (Sesbania cannabina; 0.1 μM): 61.3
